Drawing on ChEMBL document CHEMBL1150007, “Novel indolactam-based inhibitors of matrix metalloproteinases” (Bioorg Med Chem Lett, 1995), this text covers Ki for 5 compounds.

In general, Ki refers to a measure of affinity in units of concentration, obtained from inhibition or displacement. A low value points to tighter binding.

Test [1] has as its target T1, Interstitial collagenase (Homo sapiens, UniProt P03956).
T1 sequence (P03956 whole entry): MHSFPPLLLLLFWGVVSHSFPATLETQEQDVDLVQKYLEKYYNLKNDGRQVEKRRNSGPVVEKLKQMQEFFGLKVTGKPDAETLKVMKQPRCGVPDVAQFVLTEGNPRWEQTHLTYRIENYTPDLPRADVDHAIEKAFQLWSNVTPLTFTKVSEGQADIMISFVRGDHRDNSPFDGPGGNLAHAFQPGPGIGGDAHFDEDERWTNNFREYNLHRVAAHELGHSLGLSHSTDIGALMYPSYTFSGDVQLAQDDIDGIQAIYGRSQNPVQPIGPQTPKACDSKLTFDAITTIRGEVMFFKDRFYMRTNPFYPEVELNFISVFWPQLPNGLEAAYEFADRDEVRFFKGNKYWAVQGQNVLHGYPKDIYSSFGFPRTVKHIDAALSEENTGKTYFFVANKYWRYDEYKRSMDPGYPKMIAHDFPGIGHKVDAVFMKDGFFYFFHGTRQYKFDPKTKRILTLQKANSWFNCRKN
Put plainly: Inhibition of human fibroblast collagenase, matrix metalloprotease-1.

Test [2] addresses Neutrophil collagenase (Homo sapiens, UniProt P22894). Kind of test: Inhibition of human Matrix metalloprotease-8.
In test [3] the target is 72 kDa type IV collagenase (Homo sapiens, UniProt P08253). Kind of test: Inhibition of human […], matrix metalloprotease-2.
Chain of 72 kDa type IV collagenase (P08253 whole entry): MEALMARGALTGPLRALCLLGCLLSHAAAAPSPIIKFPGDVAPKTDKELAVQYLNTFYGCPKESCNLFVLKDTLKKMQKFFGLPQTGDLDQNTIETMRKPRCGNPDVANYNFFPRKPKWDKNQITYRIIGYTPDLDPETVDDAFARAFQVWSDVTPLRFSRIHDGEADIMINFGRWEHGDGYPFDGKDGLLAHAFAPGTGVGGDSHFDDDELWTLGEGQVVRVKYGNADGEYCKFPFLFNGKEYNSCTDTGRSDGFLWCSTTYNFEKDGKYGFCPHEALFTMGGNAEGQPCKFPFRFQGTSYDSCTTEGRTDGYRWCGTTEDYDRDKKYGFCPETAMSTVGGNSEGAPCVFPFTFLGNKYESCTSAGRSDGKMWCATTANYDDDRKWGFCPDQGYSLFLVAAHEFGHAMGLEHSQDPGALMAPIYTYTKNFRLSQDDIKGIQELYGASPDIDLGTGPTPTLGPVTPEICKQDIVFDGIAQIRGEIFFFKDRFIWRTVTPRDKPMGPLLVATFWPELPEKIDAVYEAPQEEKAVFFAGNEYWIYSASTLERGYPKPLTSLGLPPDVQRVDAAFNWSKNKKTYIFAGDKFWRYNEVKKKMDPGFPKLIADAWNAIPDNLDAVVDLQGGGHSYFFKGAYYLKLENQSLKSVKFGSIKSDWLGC
Test [4] addresses T2, Matrilysin (Homo sapiens, UniProt P09237).
T2 sequence (P09237 whole entry): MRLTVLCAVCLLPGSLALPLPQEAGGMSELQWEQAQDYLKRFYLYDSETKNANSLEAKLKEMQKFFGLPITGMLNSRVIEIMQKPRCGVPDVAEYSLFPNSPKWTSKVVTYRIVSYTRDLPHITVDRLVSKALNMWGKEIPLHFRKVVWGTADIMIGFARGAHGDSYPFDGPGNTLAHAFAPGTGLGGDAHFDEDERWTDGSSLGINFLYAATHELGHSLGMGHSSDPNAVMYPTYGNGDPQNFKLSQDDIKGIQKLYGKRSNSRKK
Kind of test: Inhibition of Matrix metalloprotease-7.

Test [5] addresses Stromelysin-1 (Homo sapiens, UniProt P08254). Kind of test: Inhibition of human fibroblast stromelysin, matrix metalloprotease-3.

Chain of Neutrophil collagenase (P22894 whole entry): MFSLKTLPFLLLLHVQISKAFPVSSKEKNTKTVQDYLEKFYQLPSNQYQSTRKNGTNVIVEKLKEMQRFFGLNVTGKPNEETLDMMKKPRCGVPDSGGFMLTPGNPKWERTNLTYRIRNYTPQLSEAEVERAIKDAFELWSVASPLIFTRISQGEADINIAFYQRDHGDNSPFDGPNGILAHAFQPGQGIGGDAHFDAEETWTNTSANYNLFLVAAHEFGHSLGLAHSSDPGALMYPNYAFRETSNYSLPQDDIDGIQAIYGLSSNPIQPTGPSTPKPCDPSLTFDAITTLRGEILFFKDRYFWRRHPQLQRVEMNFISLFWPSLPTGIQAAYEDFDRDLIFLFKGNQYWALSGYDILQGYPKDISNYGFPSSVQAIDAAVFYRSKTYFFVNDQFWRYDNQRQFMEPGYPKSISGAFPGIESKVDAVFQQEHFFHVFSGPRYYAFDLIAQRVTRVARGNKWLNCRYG
Chain of Stromelysin-1 (P08254 whole entry): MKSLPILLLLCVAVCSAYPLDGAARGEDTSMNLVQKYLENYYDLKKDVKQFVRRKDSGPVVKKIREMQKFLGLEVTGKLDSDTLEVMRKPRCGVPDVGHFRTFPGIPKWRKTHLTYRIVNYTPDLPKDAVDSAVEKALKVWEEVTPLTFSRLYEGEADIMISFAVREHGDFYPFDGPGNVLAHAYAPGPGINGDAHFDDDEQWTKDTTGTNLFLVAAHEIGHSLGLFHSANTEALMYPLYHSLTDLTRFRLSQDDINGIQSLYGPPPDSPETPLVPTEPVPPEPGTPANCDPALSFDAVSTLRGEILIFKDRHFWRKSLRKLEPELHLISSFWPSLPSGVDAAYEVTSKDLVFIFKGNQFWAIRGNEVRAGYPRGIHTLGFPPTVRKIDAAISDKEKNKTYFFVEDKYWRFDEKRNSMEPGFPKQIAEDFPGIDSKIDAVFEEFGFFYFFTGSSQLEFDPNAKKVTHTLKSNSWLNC

`CCCCCCNC(=O)[C@H](Cc1c[nH]c2ccccc12)NC(=O)[C@@H](CC(=O)NO)CC(C)C`: the Ki is 3 nM in test [1], 0.5 nM in test [2] and 0.3 nM in test [3].
Regarding `CCCCCCNC(=O)[C@H](Cc1c[nH]c2ccccc12)NC(=O)[C@@H](CC(=O)O)CC(C)C`, the Ki is 171 nM in test [1], over 620 nM in test [4], 163 nM in test [2] and 472 nM in test [3].
As to `CC(C)C[C@H](CP(=O)(O)CSc1ccc2ccccc2n1)C(=O)N[C@H]1Cc2cn(c3ccccc23)CCCCCCNC1=O`, the Ki turned out to be 5 nM in test [1], 806 nM in test [5], 4 nM in test [2] and 14 nM in test [3].
`CCCCCCNC(=O)[C@H](Cc1c[nH]c2ccccc12)NC(=O)[C@H](CC(C)C)CP(=O)(O)CSc1ccc2ccccc2n1`: the Ki in test [1] is 432 nM; in test [5], 6580 nM; in test [2], 102 nM; in test [3] it was 300 nM.
With `CNC(=O)[C@H](Cc1ccccc1)NC(=O)[C@H](CC(C)C)[C@H](CSc1cccs1)C(=O)O`, the Ki in test [1] was found to be 1500 nM.
